Point of comparison: CCN(CC)CC(=O)NC1COc2ccc(Cl)cc21 (centres undefined), logP 2.88. Against it:
- COc1ccc2c(c1)OCC2NC(=O)CN1CCOCC1 (centres undefined) — lower, 0.92
- O=C(CN1CCOCC1)NC1COc2ccccc21 (centres undefined) — lower, 0.81
- O=C(CN1CCCC1)NC1COc2ccc(Cl)cc21 (centres undefined) — lower, 2.47
- CCN(CC)CC(=O)NC1COc2ccccc21 (centres undefined) — lower, 2.2
- O=C(CN1CCOCC1)NC1COc2ccc(Cl)cc21 (centres undefined) — lower, 1.55
- CCCCN(CCCC)CC(=O)NC1COc2ccc(Cl)cc21 (centres undefined) — higher, 4.44
- CCN(CC)CC(=O)NC1COc2ccc(C)cc21 (centres undefined) — within 0.2 log units, 2.69
- Cc1ccc2c(c1)C(NC(=O)CN1CCCCC1)CO2 (centres undefined) — within 0.2 log units, 2.78
- O=C(CN1CCCC1)NC1COc2ccccc21 (centres undefined) — lower, 1.76
- Cc1ccc2c(c1)C(NC(=O)CN1CCCC1)CO2 (centres undefined) — lower, 2.24
- CCCCN(CCCC)CC(=O)NC1COc2ccccc21 (centres undefined) — higher, 4.15
- Cc1ccc2c(c1)C(NC(=O)CN1CCOCC1)CO2 (centres undefined) — lower, 1.38
- COc1ccc2c(c1)OCC2NC(=O)CN1CCCC1 (centres undefined) — lower, 1.92
- COc1ccc2c(c1)OCC2NC(=O)CN1CCCCC1 (centres undefined) — lower, 2.41
- CCCCN(CCCC)CC(=O)NC1COc2ccc(C)cc21 (centres undefined) — higher, 4.43
- O=C(CN1CCCCC1)NC1COc2ccccc21 (centres undefined) — lower, 2.3
- O=C(CN1CCCCC1)NC1COc2ccc(Cl)cc21 (centres undefined) — within 0.2 log units, 3.01
- CCCCN(CCCC)CC(=O)NC1COc2cc(OC)ccc21 (centres undefined) — higher, 4.24
